# Measurements taken from patent US20240239787A1, “COMPOUNDS FOR USE IN THE TREATMENT OF CANCER” (Nanyang Technological University, priority 2021, published 2024).
# Key:
# HIF-1α = HIF-1α level in hypoxic Hela cells (immunofluorescence imaging, Western blot); type: cell-based, human
# Method: (§1) HeLa, Hek293T, MDA-MB-231, 4T1 or B16F10 cells (1.5×10^6 cells/mL) were treated with J266 (10 μM) for 6 h before incubating with JQ1-CBT at the indicated concentrations and time. This entire incubation was performed in normoxia condition. For NTR-moiety caged JW4, the cells were treated with JW4 (10 μM) 6 h prior to the addition of JQ1-CBT for a subsequent 12 h, and was performed entirely under hypoxic condition. Comparison of the downstream effect between the controls and drug-treated cells were completely executed in hypoxic condition. To work up, the cells were washed with cold PBS (pH 7.4) twice, and lysed with RIPA buffer supplemented with protease inhibitor cocktail and phosphatase inhibitor cocktail for 10 min at 4° C. Then, the lysed cells were collected and centrifuged at 13,500 rpm for 20 min at 4° C. The supernatant was collected and the protein concentration was analyzed by NanoDrop™ 2000/2000c Spectrophotometers. The lysate volumes were fine-tuned and loaded onto a Mini-PROTEAN® TGX™ 4-20% Precast Gel and was separated by SDS-PAGE. Then, the gel was transferred onto a PVDF membrane (100 V, 90 min, 4° C.), washed with TBS-T twice, and blocked with 1% BSA for 1 h at r.t. Next, the membrane was incubated with primary antibody overnight at 4° C., washed thrice with TBS-T, followed by incubation with goat anti-rabbit IgG (H+L) Secondary Antibody, HRP for 1 h. The membrane was supplemented with Radiance Q chemiluminescent ECL substrate and visualized using Amersham™ ImageQuant™ 800 biomolecular imager. B-Tubulin was used as the internal control.
# Hela cells were plated at a density of 8×10^4 cells/mL in each well of the eight-well ibidi dishes before experiment. To sustain the hypoxia-induced factor throughout the drug treatment process, drug incubation was performed entirely in hypoxic chamber. […] The fluorescence of the alleviated HIF-1α expression upon drug treatment was visualized with Carl Zeiss LSM 800 microscopes (Hoechst 33258: Ex=405 nm, Em=460/50 nm; Alexa Fluor 488: Ex=488 nm, Em=515/30 nm; Alexa Fluor 594: Ex=561 nm, Em=617/20 nm).
# zebrafish embryos = test: Yolk extension phenotype of zebrafish embryos; type: in vivo; conditions: 50 μM, hypoxia-normoxia alternating 8 h
# Method: Wide type zebrafish embryos at 12 hpf was incubated with J252 (50 μM), JW4 (50 μM), or the mixture of JW4 (50 μM) and JQ1-CBT (50 μM) in hypoxia-normoxia alternative condition for 8 h at 28° C. After that, the embryos were further incubated in normoxia condition at 28° C. for 16 h before the yolk extension phenotypes were visualized under Zeiss LSM800 confocal microscope using bright-field channel. Embryos with JW4+JQ1-CBT treatment under normoxia were used as the controls.
# zebrafish larvae = test: Vascularization of vhl mutant and wide type zebrafish larvae (confocal imaging); type: in vivo; conditions: vhl^hu2117 crosses, 10 μM; non-treatment approximately one quarter
# Method: Vasculature zebrafishes were obtained from natural crosses of the AB wild-type strain or vhl^+/hu2117 carriers on the fli1a:egfp^y1 transgenic background (which fluorescently marks the vasculature). JW4 and JQ1-CBT were dissolved in DMSO and the mixture was applied to embryos at equimolar concentration of 10 μM, with J252 (10 μM) and JQ1 (10 μM) used for the control experiments. […] The vascular plexus was imaged on a Zeiss LSM800 confocal microscope. Green: blood vessel tracker, .ex: 488 nm, .em: 520/30 nm; red: . ex: 564 nm, .em: 610/30 nm.
# BRD4 [1] = target: T1, BRD4 (Homo sapiens, UniProt O60885); test: Hook effect: BRD4 degradation at extended degrader concentrations under hypoxia; type: cell-based; design: endogenous in cells
# Method: as §1, with “The membrane was supplemented with Radiance Q chemiluminescent ECL substrate and visualized using Amersham™ ImageQuant™ 800 biomolecular imager. B-Tubulin was used as the internal control.” left out
# NTR = NTR enzymatic cleavage in vitro (LC-MS); type: biochemical
# From the text: Upon the exertion of external enzymatic stimuli, the NTR-responsive moiety undergoes self-immolation to unleash the amino group. Simultaneously, the presence of a reduction agent cleaves the -StBu group to liberate thiol group (—SH), creating the cleaved-J266. The presence of a readily reactive amino group and thiol group on cleaved-J266, with the co-insertion of JQ1-CBT would spontaneously induce the CBT-cysteine orthogonal click conjugation, shaping the luciferin-based structure in click-J252 for targeted protein disruption (FIG. 12a). To validate the kinetics of ENCTAC formation, JW4 was tested against the presence of ntr enzyme accompanied by the co-factor, NADH, at 37° C. across a range of time settings in LC-MS system. The formation of J252 in the presence of J266 and JQ1-CBT was also evaluated by LC-MS.
# A MS vial was sequentially added JW4 (10 μM), nicotinamide adenine dinucleotide (NADH, 0.5 mM) and NTR (40 μg/mL), and the mixture was dissolved in PBS (pH 7.4, 10 mM) to a total volume of 500 μL. The mixture in the vial was vortexed and incubated at 37° C. with varying time control from 0-240 min. Structural mass analysis was performed to observe any molecular mass alteration.
# A MS vial was sequentially added JW4 (10 μM) or J268 ([…]), NADH (0.5 mM) and NTR (concentration range of 0-40 μg/mL), and the mixture was dissolved in PBS (pH 7.4, 10 mM) to a final volume of 500 μL. The mixture in the vial was vortexed and incubated at 37° C. for 120 min before subjecting to structural mass analysis.
# [2] = test system: broad range of enzymes and chemical agents; test: Selectivity of JW4 with or without NADH (LC-MS); type: biochemical; conditions: JW4 10 μM, reagents 0-40 μg/mL, 120 min
# Method: A MS vial was sequentially added JW4 (10 μM), a reagent selected from sodium chloride, calcium chloride, ascorbic acid, glucose, cysteine, furin, CtsB, monoamine oxidase A (MAO-A) and monoamine oxidase B (MAO-B) (concentration range of 0-40 μg/mL), with or without the addition of NADH (0.5 mM) and the mixture was dissolved in PBS (pH 7.4, 10 mM) to a final volume of 500 μL. The mixture in the vial was vortexed and incubated at 37° C. for 120 min before it was subject to structural mass analysis.
# BRD4 [3] = target: T1, BRD4; test: BRD4 degradation by Western blot in HEK293T cells; type: cell-based; design: endogenous in cells; host or cells: HEK293T; conditions: 12 h
# From the text: The effective production of BRD4 heterobifunctional degraders in solution allowed us to investigate the function of ENCTAC components in biological applications. […] Particularly, NTR responsive JW4, the pomalidomide-containing compound that can target CRBN and is a universal E3 ligase, is expected to be uncaged through NTR-assisted nitro and GSH reduction once it enters the hypoxic cells. The exposed cysteine groups are then readily linked with the CBT moieties on the JQ1-CBT fragments via a specific bioorthogonal click reaction. Besides, the JQ1 warheads are presumed to be simultaneously bound to the BRD4 proteins, thus forming bifunctional degraders in-situ for localized proteolysis (FIG. 17a). […] As proof-of-concept, the control molecule J266 that can only respond to GSH but not NTR, was first introduced into the HEK293T cell line (for 6 h), with subsequent addition of the JQ1-CBT (for 12 h). After intracellular formation of the click-J252, the proteolysis process was observed by western blot analysis.
# HeLa, Hek293T, MDA-MB-231, 4T1 or B16F10 cells (1.5×10^6 cells/mL) were treated with J266 (10 μM) for 6 h before incubating with JQ1-CBT at the indicated concentrations and time. This entire incubation was performed in normoxia condition. […] The supernatant was collected and the protein concentration was analyzed by NanoDrop™ 2000/2000c Spectrophotometers. […]
# CK2α [4] = target: T2, CK2α (Homo sapiens, UniProt P68400); test: Concentration-dependent test for CK2α degradation (immunofluorescence / Western blot); type: cell-based; conditions: 24 h
# Method: Based on the established method (From Merck), the lysates were loaded into the wells in a Mini-PROTEAN® TGX™ 4-20% Precast Gel and run for separation in 30 min under 200 V.
# Cell lines including HEK293T and MCF-7 was incubated with varied concentrations of T44 or T120 for 24 h. After that, the protein level was evaluated by the above immunofluorescence staining protocol. Alternatively, the protein level was evaluated by Western blot analysis. Particularly, The lysates of each group of cells were collected and centrifuged at 12,000×g for 20 min at 4° C. Protein levels in supernatants were determined using Nanodrop and equalized to the same concentration and boiled for 10 min with SDS-PAGE sample loading buffer before being separated using SDS-PAGE and transferred to the PVDF membrane. The membrane was then blocked with 5% BSA-TBST blocking buffer overnight at 4° C. Subsequently, CK2α Rabbit polyclonal Antibody (Cell signalling, #2656) was incubated overnight at 4° C. in 1% BSA-TBST buffer. After series of washing, the goat-anti rabbit IGG (H&L) secondary antibody was added and incubated for 1 h in 1% BSA-TBST. All signals were visualized using […] (Image quant 800) system.
# CK2α [5] = target: T2, CK2α; test: Immunofluorescence staining of CK2α degradation over time; type: cell-based; design: Hek293T, MCF-7, and U205 cells were chosen as they can express different levels of CK2α protein; endogenous in cells; host or cells: HEK293T, MCF-7, U2OS; conditions: 0.1 or 1 μM, prolonged time (up to 20 h); Hek293T, MCF-7, U205 cells
# Method: After the synthesis of T44 and T120 in Examples 1 and 2, their properties for protein degradation were examined. Hek293T, MCF-7, and U205 cells were chosen as they can express different levels of CK2α protein.
# […] Upon washing with PBS buffer thrice, the protein degradation was examined by immunofluorescence staining.
# Each group of cells with density of 5×10^4 cells in each well of 8-well ibidi-dishes was treated with T120 or T44 at different concentration (0.1 μM or 1 μM) and time (0 h, 6 h, 18 h or 30 h). After treatment, the cells were fixed with 4% paraformaldehyde for 15 min, permeabilized with 0.25% Triton™ X-100 for 10 min and blocked with 5% BSA for 1 h at room temperature. The cells were then labelled with CK2α Rabbit polyclonal Antibody (Cell signalling, #2656) in 1% BSA and incubated for 3 h at r.t. Subsequently, Alexa Fluor 488-Goat Anti-Rabbit IgG secondary antibody was stained for 30 min at r.t. The nucleus was stained with Hoechst 33342 for 30 min at r.t. The degradation of CK2α protein was visualized with Carl Zeiss LSM 800 microscopes. (Hoechst 33342: Ex=405 nm, Em=460/50 nm; Alexa Fluor 488: Ex=488 nm, Em=515/30 nm).
# T2 sequence (P68400 whole entry): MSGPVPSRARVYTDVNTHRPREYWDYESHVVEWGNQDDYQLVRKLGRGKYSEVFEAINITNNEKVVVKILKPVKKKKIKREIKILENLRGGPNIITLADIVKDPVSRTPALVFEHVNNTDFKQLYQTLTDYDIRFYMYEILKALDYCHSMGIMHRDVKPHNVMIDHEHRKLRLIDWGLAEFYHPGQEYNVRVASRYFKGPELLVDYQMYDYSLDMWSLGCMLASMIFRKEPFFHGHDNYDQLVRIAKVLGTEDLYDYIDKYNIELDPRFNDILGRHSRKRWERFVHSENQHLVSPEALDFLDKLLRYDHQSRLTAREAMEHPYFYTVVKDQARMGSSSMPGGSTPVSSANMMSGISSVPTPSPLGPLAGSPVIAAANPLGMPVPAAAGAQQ
SMILES,HIF-1α protein level (HIF-1α),yolk extension phenotype at 36 hpf (zebrafish embryos),vascularized larvae (zebrafish larvae) [%],BRD4 degradation level (BRD4 [1]; 50 μM),concentration at which decrease in efficiency of proteolysis started (hook effect) (BRD4 [1]; hypoxia) [µM],"NTR enzymatic uncaging (self-immolation) followed by LC-MS (NTR; 10 μM substrate, NTR 40 μg/mL, NADH, 37° C., span of 4 h)","Kcat of NTR uncaging (NTR; NTR, NADH 0.5 mM, PBS pH 7.4, 37° C.) [s⁻¹]","Km (NTR; NTR, NADH 0.5 mM, PBS pH 7.4, 37° C., read-out: Km of NTR uncaging) [µM]",cleavage by different components and enzymes [2],BRD4 degradation by independent treatment (alone) (BRD4 [3]),"CK2α degradation effect, concentration dependence (CK2α [4]; HEK293T and MCF-7 cells)",CK2α fluorescence change with different concentrations (CK2α [4]; MCF-7 cells),CK2α antibody fluorescence signal in cells after incubation (CK2α [5])
Cc1sc2c(c1C)C(c1ccc(Cl)cc1)=N[C@@H](CC(=O)Oc1ccc3nc(C4N=C(C(=O)NCCOCCOCC(=O)Nc5cccc6c5C(=O)N(C5CCC(=O)NC5=O)C6=O)CS4)sc3c1)c1nnc(C)n1-2 (some centres unmarked) [J252],able to downregulate,similarly less extension of yolk,22.5,around 20%,5,–,–,–,–,–,–,–,–
"CC(C)(C)SSC[C@@H](NC(=O)OCc1ccc([N+](=O)[O-])cc1)C(=O)NCCOCCOCC(=O)Nc1cccc2c1C(=O)N(C1CCC(=O)NC1=O)C2=O (some centres unmarked) [JW4, Pomalidomide-PEG-NTR]",did not induce HIF-1α elimination,–,–,–,–,near to completion,0.000262,101,no obvious cleavage except for NTR+NADH,did not induce any degradation,–,–,–
COc1cc(/C=N/n2c(SC)nnc2-c2ccc(OCCOCCOCCOCc3cn(CCOCC(=O)Nc4cccc5c4C(=O)N(C4CCC(=O)NC4=O)C5=O)nn3)cc2)c(Br)cc1O (centres unmarked) [T44],–,–,–,–,–,–,–,–,–,–,cell-dependent,no obvious fluorescence change,decreased fluorescence signals
